From US20260265771A1, “METHODS OF INCREASING THE REGENERATION EFFICIENCY IN PLANTS” (Institute of Genetics and Developmental Biology Chinese …, priority 2022, published 2026)
Several values for one entry are separate records, joined by “and”; a condition that tells them apart may be missing. Equal entries are not always repeated. Entries after “also recorded” stand apart in the source; their conditions may differ.

How the values were obtained:
recalcitrant soybean = test: Regeneration frequency / transformation efficiency of recalcitrant soybean; format: cell-based; details: 100 nM GmREF1 vs control in absence of GmREF1
Experimental: (a) photos of control recalcitrant soybean and PRR+RER overexpressing (OE) recalcitrant soybean grown in the presence of 50 nM gmREF1, 100 nM GmREF1 or a vehicle only control (mock). (b) relative regeneration frequency of control recalcitrant soybean and PRR+RER overexpressing (OE) recalcitrant soybean grown in the presence of 50 nM GmREF1, 100 nM GmREF1 or a absence of REF1 (mock).

soybean explants = test: Shoot regeneration of soybean explants; format: cell-based, Glycine max
Experimental: The relative regeneration capacity was represented by the relative frequency of explants with the regenerated shoots. Data are mean±SD of three independent experiments. Bars show mean±SD. ***P<0.001, **P<0.01, *P<0.05 (Student's t-test).
Soybean explants were cultured on medium containing indicated concentrations of REF1. Shoot regeneration was scored 21 days after incubation.

[1] = system: Williams 82 soybean cultivar; test: Transformation efficiency of soybean (reporter gene A); format: cell-based
Experimental: By “transformation efficiency” is meant the capacity of an organism to take up and incorporate exogenous DNA such as plasmids during transformation. Transformation efficiency is calculated by dividing the number of transformants by the total number of organisms subjected to the transformation process and multiplying this by 100 to obtain a percentage.
The soybean gene A was transformed into the Williams 82 soybean cultivar and treated with 100 nM GmREF1 or a control. Gene A is a transcription factor gene which is used as a reporter for transformation efficiency. […]

cucumber leaf explants = test: Shoot regeneration of cucumber leaf explants; format: cell-based; details: 10 nM CsREF1 vs untreated control explants, 21 d
Experimental: FIG. 46—Leaf explants were cultured on medium containing indicated concentrations of CsREF1. Shoot regeneration was scored at 21 d after incubation. The shoot regenerative capacity was represented by the number of regenerated shoots per explant. Data are mean±SD of three independent experiments. Bars show mean±SD. ***P<0.001, **P<0.01, *P<0.05 (Student's t-test).
Leaf explants were cultured on a medium containing 10 nM CsREF1.

[2] = 100 nM GmREF1, three experiments

| Sequence | regeneration frequency, increase (recalcitrant soybean) | relative regeneration frequency, increase (soybean explants; 10 nM GmREF1 vs absence) | relative regeneration frequency, increase (soybean explants; 20 nM GmREF1 vs absence) | relative regeneration frequency, increase (soybean explants; 50 nM GmREF1 vs absence) | shoot regeneration / regenerative capacity (soybean explants; presence vs absence of GmREF1) | Regenerated shoots carrying the reporter gene [1, 2] | Transformation efficiency (%) [1, 2] | transformation efficiency ([1]; 100 nM GmREF1 vs control) | shoot regenerative capacity (cucumber leaf explants) |
| --- | --- | --- | --- | --- | --- | --- | --- | --- | --- |
| GSVVVLQTKRKHDGGKGRDPQTN (Glycine max) [GmREF1] | ~ 12 fold | ~ 2.1 fold | ~ 2.8 fold | ~ 3.8 fold | increases the regenerative capacity; also recorded: promotes shoot regeneration | 177 and 156 and 200 | 64.1% and 73.9% and 72.9% | improves transformation efficiency; also recorded: greater |  |
| YKLEGELQKRFEDLLKTTTDNDIPRGGNY (listed as Cucumis sativus) [CsREF1] |  |  |  |  |  |  |  |  | significantly increased |
